Results as given in paper PMC12311725, “Identification of Ginsentide-like Peptides from Cacao Beans with Oxidative Stress Protection” (ACS Omega, 2025).
Where a SMILES comes first, the peptide text is derived from it. Bridges are numbered along the chain shown (N, C = ends).

Key:
[1] = Peptide stability assay with pepsin (RP-HPLC); assay type: in vitro ADME; details: isolated enzyme pepsin, pepsin 50:1 (w/v) in 0.2 M HCl, 37 °C, peptide 0.1 M [sic], RP-HPLC peak area as % of initial, read-out: structural integrity retained (percentage of peptide remaining) after incubation with pepsin
Description: Stability studies were conducted using purified cocotide tC1 (0.1 M) and S-alkylated tC1 (iodoacetamido) under specific buffer conditions. Pepsin stability was assessed by incubating the samples in a mixture of pepsin at a ratio of 50:1 (w/v) in 0.2 M HCl at 37 °C. For trypsin stability, the samples were treated with trypsin in 0.1 M ammonium bicarbonate buffer (pH 8) at 37 °C. Analysis of stability assays involved collecting samples at various time points, which were then analyzed by reversed-phase high-performance liquid chromatography (RP-HPLC) using a linear gradient of mobile phase A (0.05% trifluoroacetic acid in water) and mobile phase B (0.05% trifluoroacetic acid in acetonitrile) on an Aeris Peptide XB-C18 column (Phenomenex). The stability results were expressed as a percentage of the initial concentration and determined by the peak area of the HPLC profile.
7 Proteolytic stability assays of cocotide tC1. Cocotide tC1 was incubated with either pepsin or trypsin at 37 °C for up to 6 h. S-alkylated tC1 was used as the control. At different time points, samples of cocotide tC1 and the control were quantified using reversed-phase high pressure liquid chromatography (RP-HPLC). The relative peak areas of the RP-HPLC profiles were used to quantify the percentage of peptides remaining after incubation with pepsin or trypsin.

[2] = Iron-binding assay (High-Select Fe-NTA spin column, RP-HPLC of flowthroughs); details: 1 h at room temperature, six water washes, elution
Description: The High-Select Fe-NTA Phosphopeptide Enrichment Kit (Thermo Fisher Scientific, USA) was used to investigate the iron-binding abilities of cocotide tC1. Briefly, cocotide tC1 was suspended in the binding buffer provided. The spin column was first equilibrated by adding 200 μL of the binding buffer and then centrifuged at 1000 × g for 30 s (Thermo Fisher Scientific, USA). The suspended peptide sample was added to the spin column and incubated for 1 h at room temperature. The sample was then centrifuged again at 1000 × g for 30 s, and the flowthrough was collected. The spin column was then washed six times with 100 μL of deionized water. Each time, the sample was centrifuged at 1000 × g for 30 s before collecting the flowthrough. Finally, 100 μL of the elution buffer provided was added, and the sample was centrifuged at 1000 × g for another 30 s before collecting the final eluted flowthrough. All eight flowthroughs were analyzed by using RP-HPLC.

HaCaT cell lysate = molecular target: T1, HaCaT cell lysate (Homo sapiens, UniProt P22830); assay type: binding; details: affinity enrichment mass spectrometry
T1 construct: incubated with HaCaT keratinocyte lysates; endogenous in cells; host or cells: HaCaT human keratinocytes
T1 sequence (P22830 55-423): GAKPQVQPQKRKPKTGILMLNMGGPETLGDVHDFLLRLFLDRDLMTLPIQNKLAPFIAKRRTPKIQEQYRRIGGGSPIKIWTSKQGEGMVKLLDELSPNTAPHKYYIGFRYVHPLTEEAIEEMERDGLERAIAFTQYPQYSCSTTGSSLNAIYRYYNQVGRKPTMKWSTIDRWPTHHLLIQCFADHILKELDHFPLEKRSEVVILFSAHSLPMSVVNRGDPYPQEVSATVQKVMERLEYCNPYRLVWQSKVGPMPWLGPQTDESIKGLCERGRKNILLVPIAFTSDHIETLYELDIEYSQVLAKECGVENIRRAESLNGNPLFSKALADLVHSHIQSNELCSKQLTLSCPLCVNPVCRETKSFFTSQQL

CC[C@H](C)[C@@H]1NC(=O)CNC(=O)[C@H](CCSC)NC(=O)[C@@H]2CCCN2C(=O)[C@H](Cc2ccc(O)cc2)NC(=O)[C@H](CC(C)C)NC(=O)[C@@H]2CSSC[C@@H]3NC(=O)[C@H](Cc4ccccc4)NC(=O)CNC(=O)CNC(=O)[C@H](C)NC(=O)[C@H](CO)NC(=O)[C@H](CC(C)C)NC(=O)[C@@H](N)CSSC[C@@H]4NC(=O)[C@H](CSSC[C@H](NC1=O)C(=O)N[C@@H](Cc1ccc(O)cc1)C(=O)NCC(=O)N[C@@H](CO)C(=O)NCC(=O)N[C@H](C(=O)O)CSSC[C@H](NC(=O)[C@H](CC(N)=O)NC(=O)CNC4=O)C(=O)NCC(=O)N2)NC(=O)[C@H](CC(=O)O)NC(=O)[C@H](CCSC)NC(=O)[C@@H]1CCCN1C(=O)[C@H](CC(N)=O)NC(=O)[C@H](Cc1ccccc1)NC(=O)[C@H](CCSC)NC3=O [cocotide tC1] (H-CLSAGGFCMFNPMDCCGNCGCLYPMGICYGSGC-OH; disulfide 1-16, 8-21, 15-28, 19-33; N-terminus and C-terminus assumed)
remaining at 6 h [1]: > 80% | interaction with Fe-NTA agarose resin [2]: interacts with the Fe-NTA agarose resin | ferrochelatase as interacting protein (HaCaT cell lysate): significant interacting partner
